Legend:
[1] = target: T1, MaPylRS (Methanomethylophilus alvi, UniProt M9SC49, N166A/V168A); test: X-ray crystal structure, […] Å; assay type: binding; conditions: ternary complex with AMP-PNP; active site, two orientations (chains A and B)
T1 construct: gene MMALV_11280; pET32a, E. coli BL21-Gold(DE3)pLysS, Ni-NTA; for crystals 6xHis-thrombin site N-terminal, tag cut; dimer in crystal

[2] = target: the molecule itself; test: crystal structure; MaFRSA with 100 mM m-CF3-2-BMA and 10 mM AMP-PNP, hanging-drop vapour diffusion at 18 °C, 10 mM Tris-HCl pH 7.4, 26% PEG 3,350; space group I4, two copies in the asymmetric unit, 1.8 Å

O=C(O)C(Cc1cccc(C(F)(F)F)c1)C(=O)O [compound 18, m-CF3-2-BMA]
X-ray crystal structure, 1.8 Å [1]: we solved the crystal structure of MaFRSA bound to both m-CF3-2-BMA and the non-hydrolysable ATP analogue

B1: MaFRSA (Methanomethylophilus alvus pyrrolysyl-tRNA synthetase, MaPylRS, N166A V168A) (enzyme)
chain: MTVKYTDAQIQRLREYGNGTYEQKVFEDLASRDAAFSKEMSVASTDNEKKIKGMIANPSRHGLTQLMNDIADALVAEGFIEVRTPIFISKDALARMTITEDKPLFKQVFWIDEKRALRPMLAPNLYSVMRDLRDHTDGPVKIFEMGSCFRKESHSGMHLEEFTMLALADMGPRGDATEVLKNYISVVMKAAGLPDYDLVQEESDVYKETIDVEINGQEVCSAAVGPHYLDAAHDVHEPWSGAGFGLERLLTIREKYSTVKKGGASISYLNGAKIN
notes: Pyrrolysyl-tRNA synthetase (PylRS) of Methanomethylophilus alvus with N166A and V168A; construct GSS linker-6xHis-SSG linker-thrombin site-MaFRSA from pET32a-6xHis-thrombin-MaFRSA, tag removed with thrombin; Crystallised with m-CF3-2-benzylmalonate and AMP-PNP; source: E. coli BL21-Gold (DE3)pLysS, purified (TALON, thrombin cleavage, Superdex 200); not shown: 6xHis, N-terminal, cleaved
binding result [2]: binds
